This is an account of results in BindingDB's records for doi:10.1021/acs.jmedchem.7b00951 (Shandong University, 2017).

Assay [1] is described as follows: Antagonist activity at PAR1 in human platelet-rich plasma assessed as reduction in TRAP-stimulated platelet aggregation preincubated for 20 mins followed by TRAP stimulation measured after 5 mins by aggregometric analysis.
Assay [2] is described as follows: Antagonist activity at PAR1 in human platelet-rich plasma assessed as reduction in thrombin-stimulated platelet aggregation preincubated for 3 mins followed by thrombin stimulation measured after 5 mins by aggregometric analysis.
Test in assay [3]: as above
This is another data set of the same source.

pIC50: −log10 of the molar value.

With `C[C@H]1CC[C@@H]2C(C)(C)[C@H](O)CC[C@@]2(C)[C@@H]1/C=C/c1ccc(-c2cccc(F)c2)cn1`, the pIC50 was 5.80 in assay [1] and 6.19 in assay [2].
For `CCOC(=O)N[C@@H]1CC[C@@H]2[C@@H](C1)C[C@H]1C(=O)O[C@H](C)[C@H]1[C@H]2C=Cc1ccc(-c2cccc(F)c2)cn1` [Ethyl [(3aR,4aR,8aR,9aS)-9(S)-[(E)-2-[5-(3-fluorophenyl)-2-pyridinyl]ethenyl]dodecahydro-1(R)-methyl-3-oxonaphtho[2,3-c]furan-6(R)-yl]carbamate], the pIC50 in assay [1] is 7.51; in assay [3], 7.09.
